Source: the NIST ThermoML archive (doi:10.1016/j.jct.2018.01.024)

Assay: mn = molality of the nth substance listed, in mol/kg
Settings: Liquid, m2 = 0

O [water] + NC(N)=O
Settings	mass density [kg/m3]
274.15 K, 101 kPa, Vibrating tube method	999.899
275.15 K, 101 kPa, Vibrating tube method	999.94
276.15 K, 101 kPa, Vibrating tube method	999.964
277.15 K, 101 kPa, Vibrating tube method	999.972
278.15 K, 101 kPa, Vibrating tube method	999.964
278.15 K, 10000 kPa, Constant-volume piezometry	1004.78
278.15 K, 25000 kPa, Constant-volume piezometry	1011.88
278.15 K, 50000 kPa, Constant-volume piezometry	1023.2
278.15 K, 75000 kPa, Constant-volume piezometry	1033.92
278.15 K, 100000 kPa, Constant-volume piezometry	1044.08
279.15 K, 101 kPa, Vibrating tube method	999.94
280.15 K, 101 kPa, Vibrating tube method	999.901
281.15 K, 101 kPa, Vibrating tube method	999.848
282.15 K, 101 kPa, Vibrating tube method	999.781
283.15 K, 101 kPa, Vibrating tube method	999.699
288.15 K, 10000 kPa, Constant-volume piezometry	1003.66
288.15 K, 25000 kPa, Constant-volume piezometry	1010.42
288.15 K, 50000 kPa, Constant-volume piezometry	1021.21
288.15 K, 75000 kPa, Constant-volume piezometry	1031.47
288.15 K, 100000 kPa, Constant-volume piezometry	1041.23
298.15 K, 10000 kPa, Constant-volume piezometry	1001.46
298.15 K, 25000 kPa, Constant-volume piezometry	1007.99
298.15 K, 50000 kPa, Constant-volume piezometry	1018.44
298.15 K, 75000 kPa, Constant-volume piezometry	1028.38
298.15 K, 100000 kPa, Constant-volume piezometry	1037.86
308.15 K, 10000 kPa, Constant-volume piezometry	998.36
308.15 K, 25000 kPa, Constant-volume piezometry	1004.74
308.15 K, 50000 kPa, Constant-volume piezometry	1014.97
308.15 K, 75000 kPa, Constant-volume piezometry	1024.71
308.15 K, 100000 kPa, Constant-volume piezometry	1034.01
323.15 K, 101 kPa, Vibrating tube method	988.03
323.15 K, 10000 kPa, Constant-volume piezometry	992.3
323.15 K, 25000 kPa, Constant-volume piezometry	998.61
323.15 K, 50000 kPa, Constant-volume piezometry	1008.68
323.15 K, 75000 kPa, Constant-volume piezometry	1018.27
323.15 K, 100000 kPa, Constant-volume piezometry	1027.42
333.15 K, 101 kPa, Vibrating tube method	983.191
